The test system of one assay is A549. As to the kind of experiment: Cytotoxicity against human A549 cells. The format is functional, cell-based.
Another assay deals with HT-29. As to the kind of experiment: Cytotoxicity against human HT-29 cells. It counts as functional, cell-based.

`CC(C)[C@]12O[C@H]1[C@@H]1O[C@@]13[C@H]1CCC4=C(COC4=O)[C@@H]1C[C@@H]1O[C@@]13[C@H]2O`: the IC50 (in general, the point on the concentration scale where inhibition reaches its midpoint) was found to be 1690 nM in the assay with A549 and 78 nM in the assay with HT-29.
The like results for `Cc1occ2c1CC[C@H]1[C@H]2C[C@@H]2O[C@@]23[C@H](O)[C@@]2(C(C)C)O[C@H]2[C@@H]2O[C@@]123` were, in that order, 7850 nM and 2010 nM.
Regarding `CCc1occ2c1CC[C@H]1[C@H]2C[C@@H]2O[C@@]23[C@H](O)[C@@]2(C(C)C)O[C@H]2[C@@H]2O[C@@]123`, the IC50 in the assay with A549 and in the assay on HT-29 was over 13400 nM throughout.
As for `Cc1occ2c1CC[C@H]1[C@H]2C[C@@H]2O[C@]23[C@]12O[C@H]2[C@@H]1O[C@]1(C(C)C)[C@]3(C)O`, the IC50 with A549 and in the assay on HT-29 was over 13400 nM in each case.
Consider `Cc1occ2c1CC[C@H]1[C@H]2C[C@@H]2O[C@]23[C@]12O[C@H]2[C@@H]1O[C@]1(C(C)C)[C@@]3(C)O`, for which the IC50 in the assay on A549 and in the assay on HT-29 was over 13400 nM in each case.
With `CC(C)[C@]12O[C@H]1[C@@H]1O[C@@]13[C@H]1CCC4=C(COC4=O)[C@@H]1C[C@@H]1O[C@@]13[C@@]2(C)O`, the values for the IC50 with A549 and in the assay on HT-29 were 350 nM and 22 nM, respectively.
The corresponding values for `CC[C@@]1(O)[C@]23O[C@H]2C[C@H]2C4=C(CC[C@@H]2[C@@]32O[C@H]2[C@@H]2O[C@@]21C(C)C)C(=O)OC4` are 2830 nM and 390 nM.
Take `CC(C)[C@]12O[C@H]1[C@@H]1O[C@@]13[C@H]1CCC4=C(COC4=O)[C@@H]1C[C@@H]1O[C@@]13[C@]21CO1`: the IC50 in the assay with A549 worked out at 53 nM; in the assay with HT-29, 0.65 nM.
The like results for `CCc1c2c(nc3ccc(O)cc13)-c1cc3c(c(=O)n1C2)COC(=O)[C@]3(O)CC` [7-ETHYL-10-HYDROXYCAMPTOTHECIN] were, in that order, 47 nM and 5.9 nM.
The like results for `CC(=O)O[C@@]12CO[C@@H]1C[C@H](O)[C@@]1(C)C(=O)[C@H](O)C3=C(C)[C@@H](OC(=O)[C@H](O)[C@@H](NC(=O)OC(C)(C)C)c4ccccc4)C[C@@](O)([C@@H](OC(=O)c4ccccc4)[C@H]21)C3(C)C` [DOCETAXEL] were, in that order, 1.2 nM and 0.75 nM.
The corresponding values for `CC(C)[C@]12O[C@H]1[C@@H]1O[C@]13[C@]1(O[C@H]1C[C@H]1C4=C(CC[C@@]13C)C(=O)OC4)[C@@H]2O` [TRIPTOLIDE] are 19 nM and 2.1 nM.
`CC(C)[C@]12O[C@H]1[C@@H]1O[C@@]13[C@@]1(C)CCC4=C(COC4=O)[C@@H]1C[C@@H]1O[C@@]13C2=O` [TRIPTONIDE]: the values for the IC50 with A549 and with HT-29 were 53 nM and 8.4 nM, respectively.
